Experiments:
P. falciparum 3D7 = assay: Fixed-ratio isobologram drug interaction assay with CQ/DHA, 3D7; assay type: cell-based, Plasmodium falciparum; settings: Pf3D7
Experimental: A modified fixed-ratio isobologram method was used to assess interaction between CQ/DHA and Pht analogues. Briefly, a total of 5 solutions containing fixed-ratio mixtures of Pht derivatives with either CQ or DHA were prepared in the following ratios: 1:1, 2:1, 3:2, 2:3, and 1:4. The starting concentrations for ten 2 fold-serial dilutions across the microtiter plate were assigned so that the IC50 of each drug would be in the 5th serial dilution of the plate. Each drug was tested alone and at fixed ratios of its IC50. The assessment of drug interaction was based on the calculation of the fractional inhibitory concentration (FIC) of two drugs in the […]. FIC was calculated for each association by dividing the IC50 of the drug in the combination by the IC50 of the drug alone.

P. berghei NK65 = assay: Modified Peter's 4-day suppressive test in P. berghei NK65 infected Swiss albino mice; assay type: in vivo, Plasmodium berghei; settings: for effect on parasite load / effect on survival: 50 mg/kg s.c. for four consecutive days (artemisinin 5 mg/kg in combination), vs untreated; for median survival time (MST): 6h/6u 50 mg/kg, artemisinin 5 mg/kg, s.c. for four consecutive days, n = 6/group
Experimental: The antimalarial effect of two active analogues, 6h and 6u (administered at 50 mg/kg of body weight), was determined in mice infected with P. berghei NK65, a strain, which results in high levels of blood-stage parasitemia. […] However, the 6u analogue had better antimalarial efficacy than the 6h analogue (Fig. 6A). As such, we then evaluated the efficacy of 6u (50 mg/kg) in combination with artemisinin (5 mg/kg of body weight) at reduced dosage in the murine malaria model. […] The median survival times of animals treated with Pht 6u alone, as well in combination with ART were 23 and 27.5 days, respectively (P<0.001).
Figure 6 Antimalarial effect of Pht analogs (6h and 6u) alone and in combination with Artemisinin (6u and ART) on parasitemia and survival in mice infected with P. berghei NK65. Mice were injected with 1 × 10^7 P. berghei infected RBCs. After 48 hours mice were treated with control (PBS: untreated), 6h and 6u (alone), and 6u in combination with artemisinin (all injected subcutaneously) for four consecutive days. The % of parasitemia was determined for the groups on days 5, 8 and 15 by randomly selecting 10 different optical fields on blood smears. (A) Administration of 6h and 6u (alone), and 6 u in combination with ART. Data are the mean ± SEM from six animals per treatment group. (B) Survival in the treatment groups (n = 6/group). (C) Photomicrograph of blood smears of untreated versus treatment groups at day 15 post infection (100x magnification). ART, Artemisinin; *P < 0.05. TEXT PRINTED IN THE PICTURE: (B) Phthalimide 6h: MST- 19.5 | (B) Phthalimide 6u: MST- 23 | (B) Artemisinin: MST- 21.5 | (B) Phthalimide 6u+Artemisinin: MST- 27.5
All animal experiments were performed in female Swiss albino mice (4 to 5 weeks old, weighing 25 to 30 g). The animals were housed under standard controlled conditions at 25 °C with a 12-h light-dark cycle and access to sterilized food pellets and water. All experiments were carried out in accordance with the standard procedures approved by the Animal Ethics Committee of the University of Delhi South Campus, under the Control and Supervision of Experiments on Animals (CPCSEA), Ministry of Social Justice and Empowerment, Government of India. […] The antimalarial activity was carried out in accordance with a slightly modified version of the Peter’s 4-day suppressive test[43]. The animals were assigned to each group (n = 6). Subsequently, after 48 hour of postinfection, the parasitemia level reached 1 to 2%, and all the groups of mice were treated by subcutaneous (s.c.) injection with compounds 6h and 6u alone as well in combination with artemisinin solubilized in DMSO. One group was kept as a control and treated with physiological saline. The efficacy of the treatment was monitored by measuring the parasitemia and survival on days 5, 8 and 15 posttreatments by obtaining thin smears of blood withdrawn from the tail vein of infected mice and staining with 10% Giemsa. The level of parasitemia was determined by counting infected and noninfected erythrocytes from 10 to 15 randomly selected optical fields at 100x magnification and expressed as the number of infected erythrocytes per 100 erythrocytes. The survival of mice was recorded and observed for external symptoms, such as change in body weight, ruffled fur, lethargy and paralysis, until 30 or 40 days posttreatment. The reduction in the level of parasitemia was taken as the index for the curative activities of the drugs. The percentage of parasitemia was calculated manually with the Cell Counting Aid software[44] using the formula (total no. of parasitized RBCs)/(total no. of RBCs) × 100.
For in-vivo experiments, statistical differences between two groups were determined by Student’s t test and between multiple groups using one-way analysis of variance (ANOVA), with P values of <0.05, by GraphPad Prism (version 5.01; GraphPad Software, Inc., CA). […]

[1] = system: synchronized Pf3D7 strain cultures (rings, trophozoites); assay: Stage-specificity and parasitemia titres on synchronized Pf3D7 cultures (Giemsa smears); assay type: cell-based, Plasmodium falciparum; settings: for effect on ring stage parasitemia: 6 hours post exposure of ring stages; for effect on ring stage parasitemia / effect on mature blood stage parasite titres (parasitemia): Fig. 5; for effect on mature blood stage parasite titres (parasitemia): 16 hours after incubation with trophozoite stage; for effect on progression from trophozoites to schizonts / schizont morphology: concentration = individual IC50, up to 16 hours exposure; for effect on ring-stage growth and morphology: newly synchronized rings, concentration = individual IC50, monitored at 6 and 12 hours
Experimental: Next, we sought to determine stage-specificity of the antiplasmodial activity of the four active analogues (6a, 6h, 6m and 6u) on synchronized Pf3D7 strain cultures at 2% hematocrit and 1% parasitemia, with concentrations corresponding to individual drug IC50. To determine the effect of the compounds on both early and late ring stage parasites, the treatment was conducted on newly synchronized rings for 12 hours, and drug effect on parasite growth and morphology was monitored at 6 and 12 hours after exposure. Similarly, early trophozoites were exposed to each compound and incubated for 16 hours, and monitored at 6 and 16 hours post-exposure. The effect of the compounds on parasite morphology and development was compared in exposed and unexposed drug wells (Figs 3 and 4).
Figure 5 Effect of Pht analogues on parasite growth titres (Note: Graphical description of the inhibitory effect of select analogues on parasite growth titres 6 hours after incubation with ring-stages and 16 hours after drug incubation with trophozoite stage. Parasitemia percentage was derived by counting the number of infected erythrocytes from a total of 2,000 erythrocytes on Giemsa stained thin smears from each experiment. Bar diagrams represent the average of three different experiments).

SMILES	interaction when combined with CQ and DHA (P. falciparum 3D7)	effect on parasite load (P. berghei NK65)	effect on survival (P. berghei NK65)	median survival time (MST) (P. berghei NK65) [days]	effect on ring stage parasitemia [1]	effect on mature blood stage parasite titres (parasitemia) [1]	effect on progression from trophozoites to schizonts / schizont morphology ([1]; early trophozoites)	effect on ring-stage growth and morphology [1]	effect on trophozoites ([1]; early trophozoites, concentration = individual IC50, 6 hours after exposure)
CC(C)C[C@H](c1nc2ccccc2n1Cc1c[nH]nn1)N1C(=O)c2ccccc2C1=O [Compound 6u]	synergistic activity	suppression of the parasite load	improved survival	23	reduction in ring stage parasitemia	negligible	did not interfere with development of parasite progression from trophozoites to schizonts	active against ring-stage forms	–
CC[C@@H](C)[C@H](c1nc2ccccc2n1Cc1cn(-c2ccc(F)cc2)nn1)N1C(=O)c2ccccc2C1=O [Compound 6h]	synergistic activity	suppression of the parasite load	improved survival	19.5	did not affect parasite growth	reduction in parasitemia	presence of schizonts with abnormal morphology	did not arrest ring-stage maturation	complete destruction of trophozoites
